The values that follow come from ChEMBL document CHEMBL5223111, “Total synthesis and antibacterial evaluation of Empetroxepins A and B and related analogs” (2022).

Common to all, as to format: functional
Assay [1] relates to Escherichia coli. The assay can be described thus: Antibacterial activity against Escherichia coli assessed as reduction in pathogen growth.
The test system of assay [2] is Bacillus subtilis. The assay can be described thus: Antibacterial activity against Bacillus subtilis assessed as reduction in pathogen growth.
For assay [3], the system named is Staphylococcus aureus. The assay can be described thus: Antibacterial activity against Staphylococcus aureus assessed as reduction in pathogen growth.

Values after ≈ are worked out from the molar mass of the structure shown.

What is called MIC is the smallest concentration in the dilution series that meets the test's criterion for growth inhibition. `COc1cc2c(c(O)c1OC)Oc1ccccc1CC2`: the MIC in assay [1] is over 256 µg/mL; in assay [2] it was 256 µg/mL (≈ 940 µM); in assay [3], over 256 µg/mL.
Turning to `COc1c(O)cc2c(c1OC)Oc1ccccc1CC2`, the values for the MIC in assay [1], in assay [2] and in assay [3] were over 256 µg/mL, 256 µg/mL (≈ 940 µM) and 256 µg/mL (≈ 940 µM), respectively.
For the molecule `COc1cc2c(c(OC)c1OC)Oc1ccc(NCc3ccccc3)cc1CC2`, the MIC in assay [1], in assay [2] and in assay [3] was over 256 µg/mL each time.
Take `COc1cc2c(c(OC)c1OC)Oc1ccc(Nc3ccccc3)cc1CC2`: the MIC in assay [1], in assay [2] and in assay [3] was over 256 µg/mL each time.
Take `Oc1cc2c(c(O)c1O)Oc1ccc(Cl)cc1CC2`: the MIC in assay [1] was over 256 µg/mL; in assay [2] it was 128 µg/mL (≈ 459 µM); in assay [3], 64 µg/mL (≈ 230 µM).
In the case of `COC(=O)c1ccccc1-c1ccc2c(c1)CCc1cc(OC)c(OC)c(OC)c1O2`, the minimum inhibitory concentration (MIC) in assay [1], in assay [2] and in assay [3] was over 256 µg/mL each time.
In the case of `COc1cc2c(c(OC)c1OC)Oc1ccc(Cl)cc1CC2`, the MIC in assay [1], in assay [2] and in assay [3] was over 256 µg/mL in each case.
As to `COc1ccc(-c2ccc3c(c2)CCc2cc(OC)c(OC)c(OC)c2O3)cc1`, the MIC in assay [1], in assay [2] and in assay [3] was over 256 µg/mL throughout.
Turning to `COc1c(O)cc2c(c1O)Oc1ccc(-c3ccccc3)cc1CC2`, the minimum inhibitory concentration (MIC) in assay [1] is over 256 µg/mL; in assay [2], 16 µg/mL (≈ 47.9 µM); in assay [3], 16 µg/mL (≈ 47.9 µM).
Consider `COc1cc2c(c(OC)c1OC)Oc1c(Cl)cccc1CC2`, for which the MIC in assay [1], in assay [2] and in assay [3] was over 256 µg/mL each time.
Take `COc1cc2c(c(OC)c1OC)Oc1cccc(Cl)c1CC2`: the MIC in assay [1], in assay [2] and in assay [3] was over 256 µg/mL each time.
Take `COc1c(O)cc2c(c1OC)Oc1ccc(Br)cc1CC2`: the values for the MIC in assay [1], in assay [2] and in assay [3] were over 256 µg/mL, 16 µg/mL (≈ 45.6 µM) and 16 µg/mL (≈ 45.6 µM), respectively.
Consider `COc1cc2c(c(OC)c1OC)Oc1ccc(N3CCOCC3)cc1CC2`, for which the minimum inhibitory concentration (MIC) in assay [1], in assay [2] and in assay [3] was over 256 µg/mL each time.
`COc1cc2c(c(OC)c1OC)Oc1ccc(-c3ccccc3)cc1CC2`: the minimal inhibitory concentration (MIC) in assay [1], in assay [2] and in assay [3] was over 256 µg/mL in each case.
Regarding `COc1cc2c(c(OC)c1OC)Oc1ccc(N3CCCCC3)cc1CC2`, the MIC in assay [1], in assay [2] and in assay [3] was over 256 µg/mL each time.
Turning to `Oc1cc2c(c(O)c1O)Oc1ccccc1CC2`, the MIC in assay [1] was over 256 µg/mL; in assay [2], 128 µg/mL (≈ 524 µM); in assay [3], 64 µg/mL (≈ 262 µM).
Consider `COc1c(O)cc2c(c1O)Oc1ccc(NCc3ccccc3)cc1CC2`, for which the minimal inhibitory concentration (MIC) is over 256 µg/mL in assay [1], 64 µg/mL (≈ 176 µM) in assay [2] and 64 µg/mL (≈ 176 µM) in assay [3].
As to `Oc1cc2c(c(O)c1O)Oc1cccc(Cl)c1CC2`, the MIC in assay [1] came to 256 µg/mL (≈ 919 µM); in assay [2], 16 µg/mL (≈ 57.4 µM); in assay [3] it was 8 µg/mL (≈ 28.7 µM).
On to `COc1ccc2c(c1)CCc1cc(O)c(OC)c(O)c1O2`, for which the values for the MIC in assay [1], in assay [2] and in assay [3] were over 256 µg/mL, 128 µg/mL (≈ 444 µM) and 128 µg/mL (≈ 444 µM), respectively.
`COc1c(O)cc2c(c1O)Oc1ccc(O)cc1CC2`: the figures for the minimum inhibitory concentration (MIC) in assay [1], in assay [2] and in assay [3] were over 256 µg/mL, 256 µg/mL (≈ 933 µM) and 256 µg/mL (≈ 933 µM), respectively.
Consider `COc1cc2c(c(OC)c1OC)Oc1ccc(C)cc1CC2`, for which the MIC in assay [1], in assay [2] and in assay [3] was over 256 µg/mL each time.
For `COc1c(O)cc2c(c1O)Oc1ccc(N3CCOCC3)cc1CC2`, the minimum inhibitory concentration (MIC) in assay [1] was over 256 µg/mL; in assay [2] it was 256 µg/mL (≈ 746 µM); in assay [3], 256 µg/mL (≈ 746 µM).
Regarding `COc1c(O)cc2c(c1O)Oc1ccc(Nc3ccccc3)cc1CC2`, the MIC was over 256 µg/mL in assay [1], 32 µg/mL (≈ 91.6 µM) in assay [2] and 32 µg/mL (≈ 91.6 µM) in assay [3].
Take `Cc1ccc2c(c1)CCc1cc(O)c(O)c(O)c1O2`: the MIC in assay [1] is 256 µg/mL (≈ 991 µM); in assay [2], 32 µg/mL (≈ 124 µM); in assay [3], 16 µg/mL (≈ 61.9 µM).
For `CCN(CC)c1ccc2c(c1)CCc1cc(OC)c(OC)c(OC)c1O2`, the minimal inhibitory concentration (MIC) in assay [1], in assay [2] and in assay [3] was over 256 µg/mL in each case.
Consider `Oc1cc2c(c(O)c1O)Oc1c(Cl)cccc1CC2`, for which the MIC is over 256 µg/mL in assay [1], 32 µg/mL (≈ 115 µM) in assay [2] and 32 µg/mL (≈ 115 µM) in assay [3].
With `COc1ccc2c(c1)CCc1cc(OC)c(OC)c(OC)c1O2`, the minimum inhibitory concentration (MIC) in assay [1], in assay [2] and in assay [3] was over 256 µg/mL throughout.
On to `COc1c(O)cc2c(c1O)Oc1ccccc1CC2`, for which the minimal inhibitory concentration (MIC) in assay [1] was over 256 µg/mL; in assay [2], 256 µg/mL (≈ 991 µM); in assay [3], 256 µg/mL (≈ 991 µM).
As to `COc1cc2c(c(O)c1OC)Oc1ccc(Br)cc1CC2`, the MIC is over 256 µg/mL in assay [1], 32 µg/mL (≈ 91.1 µM) in assay [2] and 32 µg/mL (≈ 91.1 µM) in assay [3].
Consider `COc1cc2c(c(OC)c1OC)Oc1ccccc1CC2`, for which the MIC in assay [1], in assay [2] and in assay [3] was over 256 µg/mL each time.
As for `CCN(CC)c1ccc2c(c1)CCc1cc(O)c(OC)c(O)c1O2`, the minimal inhibitory concentration (MIC) is over 256 µg/mL in assay [1], 64 µg/mL (≈ 194 µM) in assay [2] and 64 µg/mL (≈ 194 µM) in assay [3].
In the case of `COc1cc2c(c(OC)c1OC)Oc1ccc(Br)cc1CC2`, the minimum inhibitory concentration (MIC) in assay [1], in assay [2] and in assay [3] was over 256 µg/mL in each case.
`COc1cc2c(c(OC)c1OC)Oc1ccc(N)cc1CC2`: the minimum inhibitory concentration (MIC) in assay [1], in assay [2] and in assay [3] was over 256 µg/mL throughout.
As for `Oc1cc2c(c(O)c1O)Oc1ccc(Br)cc1CC2`, the MIC in assay [1] was over 256 µg/mL; in assay [2] it was 8 µg/mL (≈ 24.8 µM); in assay [3] it was 16 µg/mL (≈ 49.5 µM).
Regarding `COc1c(O)cc2c(c1O)Oc1ccc(Br)cc1CC2`, the minimum inhibitory concentration (MIC) in assay [1] was over 256 µg/mL; in assay [2], 16 µg/mL (≈ 47.5 µM); in assay [3], 16 µg/mL (≈ 47.5 µM).
Consider `COc1c(O)cc2c(c1O)Oc1ccc(N3CCCCC3)cc1CC2`, for which the figures for the MIC in assay [1], in assay [2] and in assay [3] were over 256 µg/mL, 64 µg/mL (≈ 187 µM) and 128 µg/mL (≈ 375 µM), respectively.
On to `O=C(N[C@H](CO)[C@H](O)c1ccc([N+](=O)[O-])cc1)C(Cl)Cl` [CHLORAMPHENICOL], for which the MIC in assay [1] amounted to 8 µg/mL (≈ 24.8 µM); in assay [2], 4 µg/mL (≈ 12.4 µM); in assay [3], 8 µg/mL (≈ 24.8 µM).
